What was measured:
Assay in all cases: Kinase profiling (SelectScreen), ZLYTE
Format in all cases: biochemical
ABL1 = ABL1 (Homo sapiens, UniProt P00519)
Description: (§1) Kinase profiling was conducted by the SelectScreen Kinase Profiling Services (Thermo Fisher), using Z′-LYTE, Adapta, or LanthaScreen Eu Kinase Binding Assay for different kinases. The kinome phylogenetic tree was generated using the KinMap web portal.

ACVR1B (ALK4) = ACVR1B (ALK4) (Homo sapiens, UniProt P36896)
Description: as §1

AMPK A1/B1/G1 = AMPK A1/B1/G1 (Homo sapiens, UniProt Q13131)
Description: as §1

AURKA (Aurora A) = AURKA (Aurora A) (Homo sapiens, UniProt O14965)
Description: as §1

BTK = BTK (Homo sapiens, UniProt Q06187)
Description: as §1

CDK1/cyclin B = CDK1/cyclin B (Homo sapiens, UniProt P06493)
Description: as §1

CSNK1G2 (CK1 gamma 2) = CSNK1G2 (CK1 gamma 2) (Homo sapiens, UniProt P78368)
Description: as §1

CSNK2A1 (CK2 alpha 1) = CSNK2A1 (CK2 alpha 1) (Homo sapiens, UniProt P68400)
Description: as §1

DAPK3 (ZIPK) = DAPK3 (ZIPK) (Homo sapiens, UniProt O43293)
Description: as §1

DNA-PK = DNA-PK (Homo sapiens, UniProt P78527)
Description: as §1

DYRK1A = DYRK1A (Homo sapiens, UniProt Q13627)
Description: as §1

DYRK3 = DYRK3 (Homo sapiens, UniProt O43781)
Description: as §1

EGFR (ErbB1) = EGFR (ErbB1) (Homo sapiens, UniProt P00533)
Description: as §1

EPHB4 = EPHB4 (Homo sapiens, UniProt P54760)
Description: as §1

FLT3 = FLT3 (Homo sapiens, UniProt P36888)
Description: as §1

FRAP1 (mTOR) = FRAP1 (mTOR) (Homo sapiens, UniProt P42345)
Description: as §1

GSK3B (GSK3 beta) = GSK3B (GSK3 beta) (Homo sapiens, UniProt P49841)
Description: as §1

HIPK4 = HIPK4 (Homo sapiens, UniProt Q8NE63)
Description: as §1

IGF1R = IGF1R (Homo sapiens, UniProt P08069)
Description: as §1

IKBKE (IKK epsilon) = IKBKE (IKK epsilon) (Homo sapiens, UniProt Q14164)
Description: as §1

JAK3 = JAK3 (Homo sapiens, UniProt P52333)
Description: as §1

KDR (VEGFR2) = KDR (VEGFR2) (Homo sapiens, UniProt P35968)
Description: as §1

MAP2K1 (MEK1) = MAP2K1 (MEK1) (Homo sapiens, UniProt Q02750); settings: IA107 at 5 μM; ATP 100 μM
Description: as §1

MAP2K6 (MKK6) = MAP2K6 (MKK6) (Homo sapiens, UniProt P52564); settings: IA107 at 5 μM; ATP 100 μM
Description: as §1

MAPK1 (ERK2) = MAPK1 (ERK2) (Homo sapiens, UniProt P28482)
Description: as §1

MARK2 = MARK2 (Homo sapiens, UniProt Q7KZI7)
Description: as §1

MET (cMet) = MET (cMet) (Homo sapiens, UniProt P08581)
Description: as §1

NEK1 = NEK1 (Homo sapiens, UniProt Q96PY6)
Description: as §1

NTRK2 (TRKB) = NTRK2 (TRKB) (Homo sapiens, UniProt Q16620)
Description: as §1

PAK4 = PAK4 (Homo sapiens, UniProt O96013)
Description: as §1

PDGFRB (PDGFR beta) = PDGFRB (PDGFR beta) (Homo sapiens, UniProt P09619)
Description: as §1

PHKG2 = PHKG2 (Homo sapiens, UniProt P15735)
Description: as §1

PRKCB1 (PKC beta I) = PRKCB1 (PKC beta I) (Homo sapiens, UniProt P05771)
Description: as §1

PRKD1 (PKC mu) = PRKD1 (PKC mu) (Homo sapiens, UniProt Q15139)
Description: as §1

RPS6KA3 (RSK2) = RPS6KA3 (RSK2) (Homo sapiens, UniProt P51812)
Description: as §1

RPS6KB1 (p70S6K) = RPS6KB1 (p70S6K) (Homo sapiens, UniProt P23443)
Description: as §1

SGKL (SGK3) = SGKL (SGK3) (Homo sapiens, UniProt Q96BR1)
Description: as §1

SYK = SYK (Homo sapiens, UniProt P43405)
Description: as §1

TAOK2 (TAO1) = TAOK2 (TAO1) (Homo sapiens, UniProt Q9UL54)
Description: as §1

TEK (Tie2) = TEK (Tie2) (Homo sapiens, UniProt Q02763)
Description: as §1

Chain of CSNK2A1 (CK2 alpha 1) (P68400 whole entry): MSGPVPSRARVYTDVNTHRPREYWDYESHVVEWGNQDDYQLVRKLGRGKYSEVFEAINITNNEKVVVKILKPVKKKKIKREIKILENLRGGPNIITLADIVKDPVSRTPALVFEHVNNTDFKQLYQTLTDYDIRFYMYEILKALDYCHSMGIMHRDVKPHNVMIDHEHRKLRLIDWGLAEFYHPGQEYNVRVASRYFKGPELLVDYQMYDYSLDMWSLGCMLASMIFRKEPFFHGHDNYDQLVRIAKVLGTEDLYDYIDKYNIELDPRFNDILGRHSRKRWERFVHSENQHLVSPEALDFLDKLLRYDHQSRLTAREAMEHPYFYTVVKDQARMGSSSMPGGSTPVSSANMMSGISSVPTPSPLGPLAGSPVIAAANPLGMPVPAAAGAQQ
Chain of MET (cMet) (P08581 25-1390): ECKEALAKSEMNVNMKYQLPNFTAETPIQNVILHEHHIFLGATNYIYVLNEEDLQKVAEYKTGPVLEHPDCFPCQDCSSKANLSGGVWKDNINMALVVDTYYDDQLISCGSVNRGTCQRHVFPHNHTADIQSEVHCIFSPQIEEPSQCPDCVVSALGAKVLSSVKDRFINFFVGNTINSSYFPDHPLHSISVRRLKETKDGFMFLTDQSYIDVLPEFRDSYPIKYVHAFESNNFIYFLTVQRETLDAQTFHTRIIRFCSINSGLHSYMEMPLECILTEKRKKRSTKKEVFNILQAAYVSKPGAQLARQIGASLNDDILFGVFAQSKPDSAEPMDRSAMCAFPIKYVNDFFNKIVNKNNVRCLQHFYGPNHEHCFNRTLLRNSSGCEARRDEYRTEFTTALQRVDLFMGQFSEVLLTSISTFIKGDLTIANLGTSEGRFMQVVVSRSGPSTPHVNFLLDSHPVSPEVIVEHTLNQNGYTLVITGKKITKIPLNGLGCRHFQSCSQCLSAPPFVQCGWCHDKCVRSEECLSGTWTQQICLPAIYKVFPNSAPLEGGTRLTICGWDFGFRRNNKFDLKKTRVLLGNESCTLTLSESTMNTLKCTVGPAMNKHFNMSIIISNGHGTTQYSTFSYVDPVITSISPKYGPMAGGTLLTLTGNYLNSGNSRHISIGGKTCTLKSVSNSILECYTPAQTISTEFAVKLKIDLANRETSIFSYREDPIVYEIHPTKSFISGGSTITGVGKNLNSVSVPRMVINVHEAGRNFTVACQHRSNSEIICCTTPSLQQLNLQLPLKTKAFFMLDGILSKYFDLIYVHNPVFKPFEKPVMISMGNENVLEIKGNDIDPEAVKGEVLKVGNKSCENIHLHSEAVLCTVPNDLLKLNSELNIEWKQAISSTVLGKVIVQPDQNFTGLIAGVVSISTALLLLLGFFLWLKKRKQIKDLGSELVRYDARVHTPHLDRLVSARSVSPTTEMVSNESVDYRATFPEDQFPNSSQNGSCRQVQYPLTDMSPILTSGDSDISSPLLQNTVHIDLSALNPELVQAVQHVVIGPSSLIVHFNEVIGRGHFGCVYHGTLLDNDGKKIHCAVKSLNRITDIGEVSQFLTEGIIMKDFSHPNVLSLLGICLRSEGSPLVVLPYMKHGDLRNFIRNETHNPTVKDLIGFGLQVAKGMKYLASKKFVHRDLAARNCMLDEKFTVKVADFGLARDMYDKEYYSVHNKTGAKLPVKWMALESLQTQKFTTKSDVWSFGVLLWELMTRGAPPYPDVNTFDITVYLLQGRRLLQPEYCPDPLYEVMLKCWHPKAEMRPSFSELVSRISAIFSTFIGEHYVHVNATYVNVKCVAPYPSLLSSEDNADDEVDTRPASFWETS
Chain of PRKCB1 (PKC beta I) (P05771 whole entry): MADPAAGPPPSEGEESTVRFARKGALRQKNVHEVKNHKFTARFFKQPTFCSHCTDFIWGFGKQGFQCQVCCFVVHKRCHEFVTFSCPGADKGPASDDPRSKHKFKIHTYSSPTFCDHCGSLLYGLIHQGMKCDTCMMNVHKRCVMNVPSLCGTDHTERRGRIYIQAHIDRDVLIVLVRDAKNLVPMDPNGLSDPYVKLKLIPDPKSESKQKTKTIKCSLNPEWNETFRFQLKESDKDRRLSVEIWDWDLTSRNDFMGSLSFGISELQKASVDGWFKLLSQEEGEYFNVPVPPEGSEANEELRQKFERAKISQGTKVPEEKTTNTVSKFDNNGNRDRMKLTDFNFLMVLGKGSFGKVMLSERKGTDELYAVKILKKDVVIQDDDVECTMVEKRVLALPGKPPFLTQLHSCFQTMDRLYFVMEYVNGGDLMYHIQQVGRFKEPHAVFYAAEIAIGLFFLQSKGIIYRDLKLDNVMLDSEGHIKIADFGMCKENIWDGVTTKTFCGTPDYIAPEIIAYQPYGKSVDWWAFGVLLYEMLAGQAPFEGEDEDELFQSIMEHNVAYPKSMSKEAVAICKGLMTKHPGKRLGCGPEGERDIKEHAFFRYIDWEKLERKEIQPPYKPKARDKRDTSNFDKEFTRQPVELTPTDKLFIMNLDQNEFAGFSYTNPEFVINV
Chain of PDGFRB (PDGFR beta) (P09619 33-1106): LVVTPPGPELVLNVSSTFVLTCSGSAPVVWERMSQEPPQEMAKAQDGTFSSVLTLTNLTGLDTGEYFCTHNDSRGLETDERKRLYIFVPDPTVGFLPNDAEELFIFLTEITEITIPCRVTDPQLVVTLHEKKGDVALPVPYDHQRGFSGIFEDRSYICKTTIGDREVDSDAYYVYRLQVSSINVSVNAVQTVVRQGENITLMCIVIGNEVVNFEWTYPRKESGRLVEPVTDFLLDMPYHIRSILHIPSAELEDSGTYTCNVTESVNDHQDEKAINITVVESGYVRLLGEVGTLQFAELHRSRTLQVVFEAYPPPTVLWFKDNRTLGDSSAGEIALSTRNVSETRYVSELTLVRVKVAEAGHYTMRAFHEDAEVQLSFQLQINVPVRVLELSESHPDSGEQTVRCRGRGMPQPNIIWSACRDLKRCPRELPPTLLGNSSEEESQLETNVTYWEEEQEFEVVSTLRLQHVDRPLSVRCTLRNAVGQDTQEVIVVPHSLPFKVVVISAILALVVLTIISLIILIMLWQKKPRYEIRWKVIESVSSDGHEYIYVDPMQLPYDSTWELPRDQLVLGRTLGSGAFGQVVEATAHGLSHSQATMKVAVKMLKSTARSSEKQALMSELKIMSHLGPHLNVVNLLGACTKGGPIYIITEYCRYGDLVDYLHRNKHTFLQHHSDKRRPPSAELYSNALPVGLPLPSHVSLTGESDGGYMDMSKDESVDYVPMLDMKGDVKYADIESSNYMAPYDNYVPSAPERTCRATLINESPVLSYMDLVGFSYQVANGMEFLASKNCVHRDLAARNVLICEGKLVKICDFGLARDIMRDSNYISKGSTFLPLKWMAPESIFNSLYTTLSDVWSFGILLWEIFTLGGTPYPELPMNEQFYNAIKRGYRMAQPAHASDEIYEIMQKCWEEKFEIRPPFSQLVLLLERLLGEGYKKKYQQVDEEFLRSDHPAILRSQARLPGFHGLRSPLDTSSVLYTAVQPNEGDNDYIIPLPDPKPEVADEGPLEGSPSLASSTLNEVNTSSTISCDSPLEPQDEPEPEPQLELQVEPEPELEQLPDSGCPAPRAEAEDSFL
Chain of ABL1 (P00519 whole entry): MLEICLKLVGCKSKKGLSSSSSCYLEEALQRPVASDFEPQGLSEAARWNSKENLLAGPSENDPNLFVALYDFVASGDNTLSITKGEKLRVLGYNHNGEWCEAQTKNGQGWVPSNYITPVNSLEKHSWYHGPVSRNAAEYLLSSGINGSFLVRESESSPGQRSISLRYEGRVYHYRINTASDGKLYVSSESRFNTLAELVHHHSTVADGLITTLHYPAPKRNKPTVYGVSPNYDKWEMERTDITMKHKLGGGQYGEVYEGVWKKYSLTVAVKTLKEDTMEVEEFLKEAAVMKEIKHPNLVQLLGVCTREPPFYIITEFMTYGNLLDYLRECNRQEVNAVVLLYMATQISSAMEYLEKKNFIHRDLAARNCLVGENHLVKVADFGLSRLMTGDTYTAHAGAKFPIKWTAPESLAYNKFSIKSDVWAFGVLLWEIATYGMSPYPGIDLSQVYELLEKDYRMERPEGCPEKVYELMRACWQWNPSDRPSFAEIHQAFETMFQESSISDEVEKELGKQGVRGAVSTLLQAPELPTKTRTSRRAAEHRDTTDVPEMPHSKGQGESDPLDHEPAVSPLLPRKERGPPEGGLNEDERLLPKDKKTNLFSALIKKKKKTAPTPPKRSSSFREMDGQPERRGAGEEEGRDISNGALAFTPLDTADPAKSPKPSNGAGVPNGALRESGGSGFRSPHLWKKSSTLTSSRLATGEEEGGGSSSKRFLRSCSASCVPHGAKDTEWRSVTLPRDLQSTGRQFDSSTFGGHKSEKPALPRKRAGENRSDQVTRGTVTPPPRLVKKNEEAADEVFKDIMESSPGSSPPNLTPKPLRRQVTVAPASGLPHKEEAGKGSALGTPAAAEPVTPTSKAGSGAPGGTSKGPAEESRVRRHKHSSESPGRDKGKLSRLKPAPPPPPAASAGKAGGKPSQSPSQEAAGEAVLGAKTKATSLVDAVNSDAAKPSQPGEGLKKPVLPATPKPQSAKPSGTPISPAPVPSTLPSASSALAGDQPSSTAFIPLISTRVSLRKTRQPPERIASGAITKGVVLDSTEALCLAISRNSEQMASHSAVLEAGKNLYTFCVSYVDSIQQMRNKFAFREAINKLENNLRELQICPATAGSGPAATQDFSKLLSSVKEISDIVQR
Chain of CSNK1G2 (CK1 gamma 2) (P78368 whole entry): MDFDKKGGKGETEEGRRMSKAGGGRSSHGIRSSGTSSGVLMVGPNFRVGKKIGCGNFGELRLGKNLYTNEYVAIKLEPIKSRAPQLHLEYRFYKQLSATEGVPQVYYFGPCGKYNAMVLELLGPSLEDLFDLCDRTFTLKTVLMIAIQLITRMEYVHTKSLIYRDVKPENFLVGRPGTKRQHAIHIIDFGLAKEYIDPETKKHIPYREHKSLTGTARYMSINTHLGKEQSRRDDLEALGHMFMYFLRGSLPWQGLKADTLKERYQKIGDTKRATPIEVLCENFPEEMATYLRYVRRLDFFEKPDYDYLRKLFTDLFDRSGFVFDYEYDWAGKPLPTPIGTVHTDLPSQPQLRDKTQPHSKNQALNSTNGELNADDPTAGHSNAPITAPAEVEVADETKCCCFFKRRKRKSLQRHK

**Q.** What does the source list for `Cc1c(CCC(=O)O)c2cc(Br)ccc2n1C(=O)c1ccccc1` [IA107]?
**A.** inhibition at 5 µM (ABL1): 3%; inhibition at 5 µM (ACVR1B (ALK4)): -5%; inhibition at 5 µM (AMPK A1/B1/G1): 9%; inhibition at 5 µM (AURKA (Aurora A)): 5%; inhibition at 5 µM (BTK): 8%; inhibition at 5 µM (CDK1/cyclin B): 4%; inhibition at 5 µM (CSNK1G2 (CK1 gamma 2)): 6%; inhibition at 5 µM (CSNK2A1 (CK2 alpha 1)): 6%; inhibition at 5 µM (DAPK3 (ZIPK)): 1%; inhibition at 5 µM (DNA-PK): -2%; inhibition at 5 µM (DYRK1A): 4%; inhibition at 5 µM (DYRK3): 2%; inhibition at 5 µM (EGFR (ErbB1)): 5%; inhibition at 5 µM (EPHB4): 3%; inhibition at 5 µM (FLT3): 6%; inhibition at 5 µM (FRAP1 (mTOR)): 5%; inhibition at 5 µM (GSK3B (GSK3 beta)): 21%; inhibition at 5 µM (HIPK4): 6%; inhibition at 5 µM (IGF1R): 3%; inhibition at 5 µM (IKBKE (IKK epsilon)): 2%; inhibition at 5 µM (JAK3): 0%; inhibition at 5 µM (KDR (VEGFR2)): 1%; inhibition at 5 µM (MAP2K1 (MEK1)): 3%; inhibition at 5 µM (MAP2K6 (MKK6)): 2%; inhibition at 5 µM (MAPK1 (ERK2)): 2%; inhibition at 5 µM (MARK2): 8%; inhibition at 5 µM (MET (cMet)): 3%; inhibition at 5 µM (NEK1): 17%; inhibition at 5 µM (NTRK2 (TRKB)): 5%; inhibition at 5 µM (PAK4): -3%; inhibition at 5 µM (PDGFRB (PDGFR beta)): 0%; inhibition at 5 µM (PHKG2): 26%; inhibition at 5 µM (PRKCB1 (PKC beta I)): 7%; inhibition at 5 µM (PRKD1 (PKC mu)): 0%; inhibition at 5 µM (RPS6KA3 (RSK2)): 1%; inhibition at 5 µM (RPS6KB1 (p70S6K)): 3%; inhibition at 5 µM (SGKL (SGK3)): 1%; inhibition at 5 µM (SYK): 3%; inhibition at 5 µM (TAOK2 (TAO1)): -4%; inhibition at 5 µM (TEK (Tie2)): 6%
